Test results reported in ChEMBL document CHEMBL5113370, “Primed for global coronavirus pandemic: Emerging research and clinical outcome” (Eur J Med Chem, 2021).
pEC50, pIC50: −log10 of the molar value.

What was measured:
SARS-CoV-2 [1] = assay: Antiviral activity against SARS-CoV 2 nCoV-2019BetaCoV/Wuhan/WIV04/2019 infected in african green monkey Vero E6 cells measured after 48 hrs; type: functional, organism-based; settings: Severe acute respiratory syndrome coronavirus 2, nCoV-2019BetaCoV/Wuhan/WIV04/2019, Vero C1008, 48 h
[2] = Cytotoxicity against African green monkey Vero cells by CCK8 assay method; type: toxicity, cell-based; settings: chlorocebus sabaeus
[3] = Selectivity index, ratio of IC50 for African green monkey Vero cells to IC50 for antiviral activity against SARS-CoV 2 nCoV-2019BetaCoV/Wuhan/WIV04/2019; type: toxicity; settings: read-out: Ratio IC50
SARS-CoV-2 [4] = assay: Antiviral activity against SARS-CoV 2 infected in african green monkey Vero E6 cells by immunofluorescence assay; type: functional, organism-based; settings: Severe acute respiratory syndrome coronavirus 2, Vero C1008

In the case of `NC(=O)c1ncn([C@@H]2O[C@H](CO)[C@@H](O)[C@H]2O)n1` [RIBAVIRIN], the pEC50 (SARS-CoV-2 [1]) was 3.96, the CC50 [2] was greater than 400 µM and the selectivity ratio [3] was greater than 3.65.

Work on `CCN(CC)CCOc1ccc2c(c1)C(=O)c1cc(OCCN(CC)CC)ccc1-2` [TILORONE] yielded a pIC50 (SARS-CoV-2 [4]) of 5.39.
